According to publication PMC3961306, “Comparison of the Cancer Gene Targeting and Biochemical Selectivities of All Targeted Kinase Inhibitors Approved for Clinical Use” (PLoS ONE, 2014):

Experiments:
Experiment in all cases: Kinase profiling in a biochemical assay panel (mobility shift assays and ELISA), %-inhibition at 1 μM; selectivity entropy
[1] = target: panel of more than 300 wild-type and mutant kinases (313 kinase panel) (Homo sapiens, UniProt P22607)
[2] = target: T1, panel of more than 300 wild-type and mutant kinases (313 kinase panel) (Homo sapiens, UniProt O14757)
T1 sequence (O14757 1-476): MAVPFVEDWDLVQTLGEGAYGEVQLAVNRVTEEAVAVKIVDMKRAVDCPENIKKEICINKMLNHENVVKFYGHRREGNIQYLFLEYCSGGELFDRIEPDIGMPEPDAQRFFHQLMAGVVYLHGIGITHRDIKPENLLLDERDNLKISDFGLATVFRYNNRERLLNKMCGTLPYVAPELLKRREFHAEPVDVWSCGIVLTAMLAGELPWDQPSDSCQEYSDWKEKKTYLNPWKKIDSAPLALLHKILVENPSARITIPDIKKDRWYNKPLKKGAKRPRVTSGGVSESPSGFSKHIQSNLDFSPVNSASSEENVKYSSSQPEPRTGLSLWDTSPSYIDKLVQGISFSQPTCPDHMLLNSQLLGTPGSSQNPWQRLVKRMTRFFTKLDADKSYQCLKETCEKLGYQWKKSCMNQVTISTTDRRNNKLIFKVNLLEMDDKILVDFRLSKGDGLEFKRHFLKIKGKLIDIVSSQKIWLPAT

[3] = target: T2, panel of more than 300 wild-type and mutant kinases (313 kinase panel) (Homo sapiens, UniProt Q02156)
T2 sequence (Q02156 1-737): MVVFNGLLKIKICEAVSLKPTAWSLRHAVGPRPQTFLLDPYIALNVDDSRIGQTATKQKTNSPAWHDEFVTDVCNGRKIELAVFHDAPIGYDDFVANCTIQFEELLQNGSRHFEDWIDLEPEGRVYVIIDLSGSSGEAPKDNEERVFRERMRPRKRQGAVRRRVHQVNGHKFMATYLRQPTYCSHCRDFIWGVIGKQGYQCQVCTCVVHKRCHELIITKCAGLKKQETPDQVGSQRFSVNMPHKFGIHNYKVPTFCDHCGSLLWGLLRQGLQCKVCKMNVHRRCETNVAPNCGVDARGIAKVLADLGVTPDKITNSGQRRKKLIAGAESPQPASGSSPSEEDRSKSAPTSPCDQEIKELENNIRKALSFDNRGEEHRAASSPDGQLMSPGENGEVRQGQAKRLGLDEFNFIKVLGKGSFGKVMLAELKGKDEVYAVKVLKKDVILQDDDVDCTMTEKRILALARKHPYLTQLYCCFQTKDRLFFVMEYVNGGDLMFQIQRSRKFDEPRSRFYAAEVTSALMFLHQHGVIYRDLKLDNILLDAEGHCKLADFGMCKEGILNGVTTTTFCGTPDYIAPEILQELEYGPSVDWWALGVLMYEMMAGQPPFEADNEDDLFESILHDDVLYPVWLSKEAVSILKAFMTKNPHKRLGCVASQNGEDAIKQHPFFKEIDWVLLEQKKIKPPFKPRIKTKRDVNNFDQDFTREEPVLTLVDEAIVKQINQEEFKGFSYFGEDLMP

[4] = target: panel of more than 300 wild-type and mutant kinases (313 kinase panel) (Homo sapiens, UniProt P11802)
[5] = target: panel of more than 300 wild-type and mutant kinases (313 kinase panel) (Homo sapiens, UniProt P06241)
[6] = target: T3, panel of more than 300 wild-type and mutant kinases (313 kinase panel) (Homo sapiens, UniProt P30530)
T3 sequence (P30530 26-894): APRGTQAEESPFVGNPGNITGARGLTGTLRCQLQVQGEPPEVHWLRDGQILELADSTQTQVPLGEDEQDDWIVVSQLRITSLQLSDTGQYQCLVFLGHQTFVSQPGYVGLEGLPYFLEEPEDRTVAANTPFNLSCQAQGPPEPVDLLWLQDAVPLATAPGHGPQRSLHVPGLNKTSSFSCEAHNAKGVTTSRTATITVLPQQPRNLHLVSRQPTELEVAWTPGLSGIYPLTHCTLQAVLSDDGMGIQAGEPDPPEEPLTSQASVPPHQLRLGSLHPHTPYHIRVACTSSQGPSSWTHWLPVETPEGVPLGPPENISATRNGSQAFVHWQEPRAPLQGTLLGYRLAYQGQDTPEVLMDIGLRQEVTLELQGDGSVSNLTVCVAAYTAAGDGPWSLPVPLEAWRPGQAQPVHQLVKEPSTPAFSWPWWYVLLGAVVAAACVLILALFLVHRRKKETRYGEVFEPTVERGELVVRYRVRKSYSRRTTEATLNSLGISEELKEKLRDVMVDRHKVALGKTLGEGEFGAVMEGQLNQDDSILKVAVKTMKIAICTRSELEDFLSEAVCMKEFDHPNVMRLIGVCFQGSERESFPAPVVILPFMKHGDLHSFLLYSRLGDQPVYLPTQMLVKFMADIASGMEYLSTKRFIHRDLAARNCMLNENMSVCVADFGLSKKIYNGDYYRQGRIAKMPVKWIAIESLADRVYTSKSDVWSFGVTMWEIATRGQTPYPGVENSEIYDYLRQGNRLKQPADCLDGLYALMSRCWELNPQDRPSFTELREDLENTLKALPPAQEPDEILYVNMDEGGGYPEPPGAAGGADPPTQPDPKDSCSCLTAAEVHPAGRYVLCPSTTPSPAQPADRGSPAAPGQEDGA

[7] = target: panel of more than 300 wild-type and mutant kinases (313 kinase panel) (Homo sapiens, UniProt P11309)
[8] = target: panel of more than 300 wild-type and mutant kinases (313 kinase panel) (Homo sapiens, UniProt Q04912)

Chain of panel of more than 300 wild-type and mutant kinases (313 kinase panel) (Homo sapiens, UniProt P06241) (P06241 whole entry, change not shown): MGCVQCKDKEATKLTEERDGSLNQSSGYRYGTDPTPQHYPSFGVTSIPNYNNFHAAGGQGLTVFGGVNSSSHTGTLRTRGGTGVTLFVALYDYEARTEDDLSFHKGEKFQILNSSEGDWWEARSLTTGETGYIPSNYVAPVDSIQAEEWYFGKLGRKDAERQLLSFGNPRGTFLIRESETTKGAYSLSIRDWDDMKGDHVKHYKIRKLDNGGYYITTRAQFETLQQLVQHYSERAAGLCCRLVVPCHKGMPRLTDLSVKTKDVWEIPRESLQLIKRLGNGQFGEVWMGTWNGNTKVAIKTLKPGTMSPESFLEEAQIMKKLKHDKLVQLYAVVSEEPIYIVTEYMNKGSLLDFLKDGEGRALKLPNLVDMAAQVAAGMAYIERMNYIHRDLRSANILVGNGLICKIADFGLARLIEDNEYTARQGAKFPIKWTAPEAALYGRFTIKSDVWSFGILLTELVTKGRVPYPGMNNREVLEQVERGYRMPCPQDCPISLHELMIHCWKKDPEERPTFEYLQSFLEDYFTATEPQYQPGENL
Chain of panel of more than 300 wild-type and mutant kinases (313 kinase panel) (Homo sapiens, UniProt P11802) (P11802 whole entry, change not shown): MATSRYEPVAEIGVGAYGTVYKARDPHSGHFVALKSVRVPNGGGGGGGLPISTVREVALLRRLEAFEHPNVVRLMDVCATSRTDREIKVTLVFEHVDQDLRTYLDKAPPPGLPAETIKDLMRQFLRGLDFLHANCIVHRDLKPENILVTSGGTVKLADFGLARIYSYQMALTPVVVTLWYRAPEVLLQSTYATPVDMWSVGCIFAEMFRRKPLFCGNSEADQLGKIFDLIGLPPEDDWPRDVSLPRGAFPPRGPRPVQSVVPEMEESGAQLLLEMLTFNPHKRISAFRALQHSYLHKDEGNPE
Chain of panel of more than 300 wild-type and mutant kinases (313 kinase panel) (Homo sapiens, UniProt P22607) (P22607 23-806, change not shown): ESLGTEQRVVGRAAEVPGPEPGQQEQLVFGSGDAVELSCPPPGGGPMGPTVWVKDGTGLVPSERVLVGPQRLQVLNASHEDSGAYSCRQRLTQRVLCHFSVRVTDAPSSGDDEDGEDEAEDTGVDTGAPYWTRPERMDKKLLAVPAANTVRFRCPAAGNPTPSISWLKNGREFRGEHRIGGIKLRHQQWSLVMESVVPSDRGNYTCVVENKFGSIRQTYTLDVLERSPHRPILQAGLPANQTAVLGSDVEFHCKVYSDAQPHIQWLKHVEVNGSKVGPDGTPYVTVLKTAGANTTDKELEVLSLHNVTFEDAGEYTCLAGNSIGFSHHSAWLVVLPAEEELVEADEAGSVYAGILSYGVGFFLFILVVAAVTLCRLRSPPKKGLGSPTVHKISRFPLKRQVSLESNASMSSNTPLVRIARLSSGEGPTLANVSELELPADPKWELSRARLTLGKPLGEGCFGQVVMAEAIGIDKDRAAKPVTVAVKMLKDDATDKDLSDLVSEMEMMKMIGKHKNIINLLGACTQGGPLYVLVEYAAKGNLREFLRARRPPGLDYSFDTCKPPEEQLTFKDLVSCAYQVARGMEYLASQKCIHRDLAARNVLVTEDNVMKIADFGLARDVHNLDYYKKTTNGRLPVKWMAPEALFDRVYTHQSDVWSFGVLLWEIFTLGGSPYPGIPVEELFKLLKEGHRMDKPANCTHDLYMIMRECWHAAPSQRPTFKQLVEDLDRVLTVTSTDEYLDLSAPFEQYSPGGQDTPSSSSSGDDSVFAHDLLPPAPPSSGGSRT

Row | SMILES | %-inhibition of FGFR3 ([1]; kinase FGFR3, compound at 1 μM) [%] | %-inhibition, CHK1 ([2]; kinase CHK1, 1 μM compound) [%] | %-inhibition of PKCε ([3]; kinase PKCε, 1 μM) [%] | %-inhibition, CDK4/CycD3 ([4]; kinase CDK4/CycD3, 1 μM compound) [%] | %-inhibition of FYN ([5]; kinase FYN, compound at 1 μM) [%] | %-inhibition, AXL ([6]; kinase AXL, 1 μM compound) [%] | %-inhibition of PIM1 ([7]; kinase PIM1, 1 μM) [%] | %-inhibition of RON ([8]; kinase RON, 1 μM) [%] | %-inhibition, CDK4/CycD3 ([4]; 1 µM) [%] | %-inhibition of RON ([8]; 1 µM) [%] | %-inhibition of FGFR3 ([1]; 1 µM) [%] | %-inhibition, CHK1 ([2]; 1 µM) [%] | %-inhibition of PKCε ([3]; 1 µM) [%] | %-inhibition of FYN ([5]; 1 µM) [%] | %-inhibition, AXL ([6]; 1 µM) [%] | %-inhibition of PIM1 ([7]; 1 µM) [%]
1 | N#CC[C@H](C1CCCC1)n1cc(-c2ncnc3[nH]ccc23)cn1 [ruxolitinib] | 15 | 4.66 | -2.79 | -1.74 | 11 | 12 | -8 | -5 |  |  |  |  |  |  |  | 
2 | Cc1cn(-c2cc(NC(=O)c3ccc(C)c(Nc4nccc(-c5cccnc5)n4)c3)cc(C(F)(F)F)c2)cn1 [nilotinib] | -11 | -15 | -0.567 |  | 59 | -4.75 | 8 |  | -4 | -13 |  |  |  |  |  | 
3 | C#Cc1cccc(Nc2ncnc3cc(OCCOC)c(OCCOC)cc23)c1 [erlotinib] |  |  |  |  |  |  |  |  | 1.86 | 8 | 63 | 14 | 0.598 | 34 | 18 | 6
